# Results: patent publication US20240118210A1, “FFN FLUORESCENCE RELEASE ASSAY (FFRA) AND METHODS OF USING SAME” (Duke University, priority 2021, published 2024)
# B1: PF4: 31.2 kDa protein synthesized primarily by megakaryocytes and stored in platelet alpha granules (protein, UniProt P02776 32-101, looked up)
# Platelet factor 4: EAEEDGDLQCLCVKTTSQVRPRHITSLEVIKAGPHCPTAQLIATLKNGRKICLDLQAPLYKKIIKKLLES
# Key:
# healthy donor platelets [1] = test: FFN246 release from platelets activated with A23187 at varying FFN246 concentrations (Example 2, FIG. 1); format: cell-based; conditions: for MFI of platelet releasate, FFN246+A23187: A23187 45 min
# Excerpt: Calcium (Ca) ionophores mobilize calcium ions from intracellular storage sites or transport it through the plasma membrane to increase the concentration of cytoplasmic calcium ions (Ca^2+) and thereby activate platelets. The Ca ionophore A23187 works by triggering release of Ca^2+ from the dense tubular system of platelets and is a potent activator of platelets. A23187 was used to test if FFN246 loaded platelets would release FFN246 into the supernatant upon activation.
# Platelets were then washed twice in buffer containing prostaglandin E1 (PGE1) and apyrase to minimize platelet activation. The washed platelets were resuspended in Mg^2+/Ca^2+ buffer without inhibitors. Washed platelets were then incubated with A23187 for 45 minutes, after which platelets were centrifuged for 10 minutes at 576×g. Fluorescence in the platelet releasate/supernatant was measured in a BMG Labtech Fluostar Optima fluorometer at an appropriate emission/excitation spectra. Gain was set using the FFN246 releasate for each concentration at 50% of maximum signal.
# healthy donor platelets [2] = test: FFN246 release with platelet activation by several platelet agonists (Example 3, FIG. 2); format: cell-based; conditions: for MFI of platelet releasate, FFN246+agonist: platelets loaded with 50 μM FFN246, 45 min, A23187 10 μM, ADP 25 μM, ristocetin 73 μM, collagen 63 nM, IIa 278 nM, PAR4 peptide 200 μM, SFLLRN 100 μM
# Description: To determine if FFN246 loaded platelets release FFN246 with other platelet agonists and receptor mechanisms, FFN246 release was examined by incubating platelets with several platelet secretogogues, including collagen, IIa, PAR4, SFLLRN. […] Collagen stimulates the GP VI receptor; ADP stimulates the P2Y1 and P2Y12 receptors; IIa activates PAR1 and PAR4 receptors; SFLLRN binds to the PAR1 receptor; PAR4 agonist binds the PAR4 receptor.
# To examine the effect of various platelet agonists on FFN246 release, healthy donor platelets were washed and incubated with and without FFN246 (50 μM) for 30 minutes, followed by the addition of 1 mM imipramine for 10 minutes to block further reuptake. Platelets were then incubated with the various conditions: (1) A23187 10 μM; (2) buffer alone; (3) ADP 25 μM; (4) ristocetin 73 μM; (5) collagen 63 nM; (6) IIa 278 nM; (7) PAR4 peptide 200 μM; (8) SFLLRN 100 μM: and (9) buffer only platelets+A23187 (10 μM) for 45 minutes. Following incubation with agonists, platelets were centrifuged for 10 minutes at 576×g. Fluorescence in the platelet releasate (i.e. supernatant) was measured in a BMG Labtech Fluostar Optima fluorometer at an appropriate emission/excitation spectra. Gain was set using the FFN246 releasate for each concentration at 50% of maximum signal.
# [3] = tested on: healthy donor washed platelets; test: FFN246 release on platelet activation with HIT-like monoclonal antibody KKO (Example 4, FIG. 3); format: cell-based; conditions: for MFI of platelet releasate, FFN246+agonist or antibody, no heparin: platelets loaded with 50 μM FFN246, 45 min, collagen 63 nM, SFLLRN 100 μM, KKO alone 25 μg/mL
# Description: To examine the effect of various platelet agonists on FFN246 release, healthy donor washed platelets were incubated with 50 μM FFN246 for 30 minutes, followed by addition of 1 mM imipramine for 10 minutes to block further reuptake. Platelets were then incubated with (1) A23187 10 μM; (2) collagen 63 nM; (3) SFLLRN 100 μM; (4) buffer; (5) KKO alone 25 μg/mL; (6) 0.5 U/mL heparin, 25 μg/ml KKO; (7) 10 U/mL heparin, 25 μg/mL KKO; (8) 0.5 U/mL heparin, 25 μg/mL TRA; and (9) A23187 10 μM (no FFN246). Incubation occurred for 45 minutes and platelets were centrifuged for 10 minutes at 576×g. Fluorescence in the platelet releasate was measured in a BMG Labtech Fluostar optima fluorometer at an appropriate emission/excitation spectra. Gain was set using the FFN246 releasate for each concentration at 50% of maximum signal.
# [4] = tested on: healthy donor platelet rich plasma; test: Release of FFN246 vs FFN102 from platelets exposed to calcium ionophore (Example 5, FIG. 4); format: cell-based; conditions: 100 μM FFN; for MFI of supernatant, FFN-loaded platelets incubated with ionophore: calcium ionophore
# Description: Drawing of donor blood and preparation of donor platelets. 10-20 cc of blood were drawn off into Acid-Citrate Dextrose. 20 mL of whole blood generated 8-10 mL of platelet rich plasma (PRP). The whole blood was spun down at 180 g for 20 minutes without using the brake. Donor PRP was separated and the needed PRP was calculated for each of the FFN246 and buffer conditions. 25 μM of FFN246 was added to the PRP condition labeled “FFN246”. 2.5 μL/mL of PGE1 was added to each PRP condition simultaneously. The mixture was incubated at 37° C. for 30 minutes in a H2O bath. For example, for 2.5 mL PRP, 6.25 μL PGE1 and 6.25 μL FFN246 were added. FFN246 was not added to the buffer PRP condition.
# The mixture was centrifuged at 700 g for 10 minutes with a brake at 22° C. to 26° C. The supernatant was discarded and the platelets were gently resuspended in PGE1/Apyrase buffer 1 mL per mL PRP for 15 minutes at room temperature. For example, 2.5 mL PRP was resuspended in 2.5 mL buffer. This was centrifuged at 700 g for 10 minutes at room temperature with a brake. The supernatant was discarded and FFN246 or platelets were resuspended into 2 mL/PRP of Ca/Mg buffer after using a pipette to completely remove PGE1/apyrase containing buffer above pellet. For example, 2.5 mL of platelets was resuspended with 5 mL of HT Ca/Mg.
# When various conditions were tested, such as NP40, buffer alone, buffer+heparin, SFLLRN, and additional conditions dictated by an experiment, the following aliquots were added: agonist, plasma, or antibody; buffer added to agonist to make 50 μL total; and 150 μL of FFN246 buffer labeled platelets. The conditions were allowed to develop for 1 hour at 37° C. on an agitator. The conditions were then centrifuged at 700 g for 10 mins at room temperature with a brake. 75 μL of the supernatant was added per well in triplicate. Fluorometer analysis was ran within 1 hour at appropriate excitation/emission spectra (FFN246 ex/em (nm): 392/427).
# The amount of FFN246 released from platelets was compared to that of FFN102, a dopaminergic fluorophore. Healthy donor platelet rich plasma was incubated with 100 μM of FFN246, FFN102, or buffer alone. Incubation and washing occurred per the protocol described in Example 1. Resuspended platelets were added either to calcium ionophore or buffer conditions for both FFN246 and FFN102. Supernatant was collected following centrifugation and analyzed using fluorometry.
# [5] = molecular target: dopamine transporters (DAT) (Homo sapiens, UniProt Q01959); conditions: relative to SERT uptake; cited from earlier work
# dopamine transporters (DAT), sequence (Q01959 whole entry, species assumed): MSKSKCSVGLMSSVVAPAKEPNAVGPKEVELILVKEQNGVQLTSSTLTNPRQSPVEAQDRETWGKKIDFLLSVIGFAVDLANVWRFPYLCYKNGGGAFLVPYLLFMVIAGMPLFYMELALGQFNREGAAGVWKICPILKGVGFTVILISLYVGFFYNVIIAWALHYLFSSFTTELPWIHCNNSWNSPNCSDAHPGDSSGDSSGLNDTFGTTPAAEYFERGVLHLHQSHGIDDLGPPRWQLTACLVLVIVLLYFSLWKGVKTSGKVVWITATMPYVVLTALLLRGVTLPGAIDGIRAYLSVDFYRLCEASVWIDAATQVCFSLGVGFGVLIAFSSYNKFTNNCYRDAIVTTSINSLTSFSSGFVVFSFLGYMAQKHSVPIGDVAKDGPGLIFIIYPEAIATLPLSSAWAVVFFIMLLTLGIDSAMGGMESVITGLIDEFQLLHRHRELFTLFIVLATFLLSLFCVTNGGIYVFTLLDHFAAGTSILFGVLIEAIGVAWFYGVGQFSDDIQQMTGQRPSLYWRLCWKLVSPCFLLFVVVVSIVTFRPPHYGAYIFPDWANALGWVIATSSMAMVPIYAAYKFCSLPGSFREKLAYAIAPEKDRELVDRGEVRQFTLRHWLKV
# [6] = molecular target: norepinephrine transporters (NET) (Homo sapiens, UniProt P23975); conditions: relative to SERT uptake; cited from earlier work
# norepinephrine transporters (NET), sequence (P23975 whole entry): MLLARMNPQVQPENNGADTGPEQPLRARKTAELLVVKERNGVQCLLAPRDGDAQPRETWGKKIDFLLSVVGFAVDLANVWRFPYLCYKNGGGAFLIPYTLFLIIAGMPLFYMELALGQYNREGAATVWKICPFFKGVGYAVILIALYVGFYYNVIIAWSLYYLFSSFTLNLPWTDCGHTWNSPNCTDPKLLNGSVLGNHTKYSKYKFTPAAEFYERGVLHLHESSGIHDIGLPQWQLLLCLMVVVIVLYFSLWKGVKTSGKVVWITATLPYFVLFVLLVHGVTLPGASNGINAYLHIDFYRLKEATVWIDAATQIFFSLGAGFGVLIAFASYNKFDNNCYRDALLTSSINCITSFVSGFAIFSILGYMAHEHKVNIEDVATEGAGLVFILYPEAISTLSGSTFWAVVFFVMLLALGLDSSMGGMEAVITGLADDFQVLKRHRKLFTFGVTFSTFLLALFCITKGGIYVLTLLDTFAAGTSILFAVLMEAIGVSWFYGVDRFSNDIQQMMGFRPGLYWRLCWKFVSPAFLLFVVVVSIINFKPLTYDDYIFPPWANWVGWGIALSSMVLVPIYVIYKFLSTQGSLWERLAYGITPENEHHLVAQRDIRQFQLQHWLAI
# 5-HT receptors = conditions: cited from earlier work
# platelets = test: PF4 addition to assay conditions (platelet activation); format: cell-based; conditions: 30 μg/ml; healthy donor and HIT samples; absence of heparin addition
# Excerpt: PF4 addition to assay conditions. Platelet factor 4 (PF4) is a 31.2 kDa protein synthesized primarily by megakaryocytes and stored in platelet alpha granules. Positively charged PF4 forms ultra large immune complexes with negatively charged heparin in patients who develop pathological heparin induced thrombocytopenia (HIT).
molecule,measurement,setting,value
CNc1ccc2oc(C[C@H]3O[C@@]4(CC[C@H]3C)O[C@H]([C@H](C)C(=O)c3ccc[nH]3)[C@H](C)C[C@H]4C)nc2c1C(=O)O [A23187],"MFI of platelet releasate, buffer+A23187 (no FFN246)",healthy donor platelets [1]; background paired with 10 uM FFN246 condition,"10,100"
same,"MFI of platelet releasate, buffer+A23187 (no FFN246)",healthy donor platelets [1]; background paired with 25 μM FFN246 condition,"4,707"
same,"MFI of platelet releasate, buffer+A23187 (no FFN246)",healthy donor platelets [1]; background paired with 50 μM FFN246 condition,"3,461"
same,"MFI of platelet releasate, buffer+A23187 (no FFN246)",healthy donor platelets [1]; background paired with 100 μM FFN246 condition,"1,676"
same,"MFI of platelet releasate, buffer+calcium ionophore (no FFN246)",healthy donor platelets [2]; buffer only platelets + A23187 10 μM,12526
same,"MFI of platelet releasate, FFN246+agonist",healthy donor platelets [2],31924
same,"MFI of platelet releasate, buffer+calcium ionophore (no FFN246)","[3]; A23187 10 μM, no FFN246",11399
same,"MFI of platelet releasate, FFN246+agonist or antibody, no heparin",[3]; A23187 10 μM,32674
"Nc1ncnc2c1ncn2[C@@H]1O[C@H](COP(=O)(O)OP(=O)(O)O)[C@@H](O)[C@H]1O [ADP, adenosine diphosphate]","MFI of platelet releasate, FFN246+agonist",healthy donor platelets [2],14013
Cl.NCCc1cc(=O)oc2cc(O)c(Cl)cc12 [FFN102],"MFI of supernatant, FFN-loaded platelets incubated with buffer",[4],7247+352
same,"MFI of supernatant, FFN-loaded platelets incubated with ionophore",[4],9845+352
NCCc1ccc2[nH]c3cccc(F)c3c(=O)c2c1 [FFN246],"MFI of platelet releasate, FFN246+A23187",healthy donor platelets [1]; 10 uM FFN246,"25,790"
same,"MFI of platelet releasate, FFN246+A23187",healthy donor platelets [1]; 25 μM FFN246,"36,124"
same,"MFI of platelet releasate, FFN246+A23187",healthy donor platelets [1]; 50 μM FFN246,"30,470"
same,"MFI of platelet releasate, FFN246+A23187",healthy donor platelets [1]; 100 μM FFN246,"35,405"
same,"MFI of platelet releasate, FFN246+buffer","healthy donor platelets [2]; 50 μM FFN246, no agonist",12199
same,"MFI of platelet releasate, FFN246+buffer","[3]; 50 μM FFN246, no agonist",11688
same,"MFI of supernatant, FFN-loaded platelets incubated with buffer",[4],"15,692+1203"
same,"MFI of supernatant, FFN-loaded platelets incubated with ionophore",[4],32901+448
same,"uptake by dopamine transporters (DAT), lower than SERT",[5],31%
same,"uptake by norepinephrine transporters (NET), lower than SERT",[6],23%
same,activity at 5-HT receptors,5-HT receptors,no activity at 5-HT receptors
same,binding to neurotransmitter receptors,5-HT receptors,does not bind to neurotransmitter receptors
SFLLRN,"MFI of platelet releasate, FFN246+agonist",healthy donor platelets [2],26703
same,"MFI of platelet releasate, FFN246+agonist or antibody, no heparin",[3]; A23187 10 μM,25426
collagen,"MFI of platelet releasate, FFN246+agonist",healthy donor platelets [2],24369
same,"MFI of platelet releasate, FFN246+agonist or antibody, no heparin",[3]; A23187 10 μM,24388
ristocetin,"MFI of platelet releasate, FFN246+agonist",healthy donor platelets [2],12247
B1,platelet activation by exogenous PF4 added to plasma conditions,platelets,led to platelet activation
